Where “and” joins values, the source holds several entries; their conditions need not be identical. Equal entries are not always repeated.
Legend:
[1] = tested on: Nicotinic Acetylcholine; assay type: binding, human; conditions: 10 μM CV-8814
[2] = tested on: TAC mice; test: TAC mice: echocardiography; assay type: in vivo
[3] = tested on: Sodium Channel, Site 2; assay type: binding, rat; conditions: 10 μM CV-8814
[4] = tested on: TAC mice; test: TAC mice: left ventricular pressure with Mikro-tip catheter; assay type: in vivo; conditions: end of 6-week treatment; for left ventricular developed pressure (LVDP): TMZ 6, NA 2.4, CV-8814 7.5, CV-8972 10 mg/kg/day
[5] = tested on: GABAA, Ro-15-1788, Hippocampus; assay type: binding, rat; conditions: 10 μM CV-8814
[6] = tested on: Glycine, Strychnine-Sensitive; assay type: binding, rat; conditions: 10 μM CV-8814
[7] = tested on: TAC mice; test: TAC mice, six weeks treatment: heart weight and heart weight/body weight; assay type: in vivo; conditions: 6 weeks; for cardiac mass: TMZ 6, CV-8814 7.5, CV-8972 10 mg/kg/day, osmotic minipump
[8] = tested on: Phosphodiesterase PDE4; assay type: biochemical, human; conditions: 10 μM CV-8814
[9] = tested on: Glutamate, AMPA; assay type: binding, rat; conditions: 10 μM CV-8814
[10] = tested on: Glutamate, NMDA, Polyamine; assay type: binding, rat; conditions: 10 μM CV-8814
[11] = tested on: Glutamate, NMDA, Phencyclidine; assay type: binding, rat; conditions: 10 μM CV-8814
[12] = tested on: Transporter, Adenosine; assay type: binding, guinea pig; conditions: 10 μM CV-8814
[13] = tested on: GABAA, Chloride Channel, TBOB; assay type: binding, rat; conditions: 10 μM CV-8814
[14] = tested on: Transporter, GABA; assay type: binding, rat; conditions: 10 μM CV-8814
[15] = target: Potassium Channel [KATP] (Cricetus cricetus, UniProt Q09427); assay type: binding, hamster; conditions: 10 μM CV-8814
[16] = tested on: Calcium Channel L-Type, Benzothiazepine; assay type: binding, rat; conditions: 10 μM CV-8814
[17] = tested on: Calcium Channel L-Type, Dihydropyridine; assay type: binding, rat; conditions: 10 μM CV-8814
[18] = tested on: Protein Serine/Threonine Kinase, PKC, Non-selective; assay type: biochemical, rat; conditions: 10 μM CV-8814
[19] = tested on: Phosphodiesterase PDE3; assay type: biochemical, human; conditions: 10 μM CV-8814
[20] = tested on: Glutamate, NMDA, Agonism; assay type: binding, rat; conditions: 10 μM CV-8814
[21] = tested on: ATPase, Na^+/K^+, pig heart; assay type: biochemical; conditions: 10 μM CV-8814
[22] = tested on: Glutamate, Kainate; assay type: binding, rat; conditions: 10 μM CV-8814
[23] = tested on: GABAA, Flunitrazepam, Central; assay type: binding, rat; conditions: 10 μM CV-8814
[24] = tested on: Calcium Channel L-Type, Phenylalkylamine; assay type: binding, rat; conditions: 10 μM CV-8814
[25] = tested on: TAC mice; test: TAC mice: cardiac fibrosis, Masson's trichrome; assay type: in vivo; conditions: end of 6-week experiment
[26] = tested on: isolated hearts after ischemia-reperfusion; test: Ischemia-reperfusion (IR): cardiac function (left ventricular pressure); parameters: species or system mice; conditions: for left ventricular developed pressure (LVDP), Mean: Table 6 group mean; for HR / LVDP / LVDPxHR / LVEDP / LVESP: individual hearts, MEAN = group mean
Description: (§1) FIG. 38 is a schematic of the ischemia-reperfusion (IR) method used to analyze the effects of selected compositions on coronary flow, cardiac function, and infarct size. […] At 20 minutes, ischemia was induced, and coronary flow was analyzed. At 50 minutes, reperfusion was initiated to restore blood flow. At 170 minutes, coronary flow and cardiac function was analyzed, and then the hearts were preserved, sectioned, and infarct size was measured by triphenyltetrazolium chloride (TTC) staining. FIG. 40 is graph of left ventricular developed pressure (LVDP) after IR.

[27] = tested on: isolated hearts after ischemia-reperfusion; test: Ischemia-reperfusion (IR): infarct size by TTC staining; assay type: in vivo, mice
Description: as §1, with “staining. […]” for “staining.”, “42” for “40”, “infarct size” for “left ventricular developed pressure (LVDP)”

[28] = tested on: isolated hearts after ischemia-reperfusion; test: Ischemia-reperfusion (IR): coronary flow; assay type: in vivo, mice; conditions: TMZ 20 μM, TNF 2 μM each, TNS 20 μM each, individual hearts, MEAN = group mean; for CF20: coronary flow at 20 minutes; for CF170: coronary flow at 170 minutes, after IR; for CF170/CF20: ratio of flow at 170 minutes to flow at 20 minutes
Description: FIG. 38 is a schematic of the ischemia-reperfusion (IR) method used to analyze the effects of selected compositions on coronary flow, cardiac function, and infarct size. […] At 20 minutes, ischemia was induced, and coronary flow was analyzed. At 50 minutes, reperfusion was initiated to restore blood flow. At 170 minutes, coronary flow and cardiac function was analyzed, and then the hearts were preserved, sectioned, and infarct size was measured by triphenyltetrazolium chloride (TTC) staining. FIG. 39 is a graph of coronary flow of after IR.

[29] = TMZ 6, NA 2.4, CV-8814 7.5, CV-8972 10 mg/kg/day
[30] = TMZ 20 μM, TNF 2 μM each, TNS 20 μM each

Sequence of Potassium Channel [KATP] (Q09427 whole entry): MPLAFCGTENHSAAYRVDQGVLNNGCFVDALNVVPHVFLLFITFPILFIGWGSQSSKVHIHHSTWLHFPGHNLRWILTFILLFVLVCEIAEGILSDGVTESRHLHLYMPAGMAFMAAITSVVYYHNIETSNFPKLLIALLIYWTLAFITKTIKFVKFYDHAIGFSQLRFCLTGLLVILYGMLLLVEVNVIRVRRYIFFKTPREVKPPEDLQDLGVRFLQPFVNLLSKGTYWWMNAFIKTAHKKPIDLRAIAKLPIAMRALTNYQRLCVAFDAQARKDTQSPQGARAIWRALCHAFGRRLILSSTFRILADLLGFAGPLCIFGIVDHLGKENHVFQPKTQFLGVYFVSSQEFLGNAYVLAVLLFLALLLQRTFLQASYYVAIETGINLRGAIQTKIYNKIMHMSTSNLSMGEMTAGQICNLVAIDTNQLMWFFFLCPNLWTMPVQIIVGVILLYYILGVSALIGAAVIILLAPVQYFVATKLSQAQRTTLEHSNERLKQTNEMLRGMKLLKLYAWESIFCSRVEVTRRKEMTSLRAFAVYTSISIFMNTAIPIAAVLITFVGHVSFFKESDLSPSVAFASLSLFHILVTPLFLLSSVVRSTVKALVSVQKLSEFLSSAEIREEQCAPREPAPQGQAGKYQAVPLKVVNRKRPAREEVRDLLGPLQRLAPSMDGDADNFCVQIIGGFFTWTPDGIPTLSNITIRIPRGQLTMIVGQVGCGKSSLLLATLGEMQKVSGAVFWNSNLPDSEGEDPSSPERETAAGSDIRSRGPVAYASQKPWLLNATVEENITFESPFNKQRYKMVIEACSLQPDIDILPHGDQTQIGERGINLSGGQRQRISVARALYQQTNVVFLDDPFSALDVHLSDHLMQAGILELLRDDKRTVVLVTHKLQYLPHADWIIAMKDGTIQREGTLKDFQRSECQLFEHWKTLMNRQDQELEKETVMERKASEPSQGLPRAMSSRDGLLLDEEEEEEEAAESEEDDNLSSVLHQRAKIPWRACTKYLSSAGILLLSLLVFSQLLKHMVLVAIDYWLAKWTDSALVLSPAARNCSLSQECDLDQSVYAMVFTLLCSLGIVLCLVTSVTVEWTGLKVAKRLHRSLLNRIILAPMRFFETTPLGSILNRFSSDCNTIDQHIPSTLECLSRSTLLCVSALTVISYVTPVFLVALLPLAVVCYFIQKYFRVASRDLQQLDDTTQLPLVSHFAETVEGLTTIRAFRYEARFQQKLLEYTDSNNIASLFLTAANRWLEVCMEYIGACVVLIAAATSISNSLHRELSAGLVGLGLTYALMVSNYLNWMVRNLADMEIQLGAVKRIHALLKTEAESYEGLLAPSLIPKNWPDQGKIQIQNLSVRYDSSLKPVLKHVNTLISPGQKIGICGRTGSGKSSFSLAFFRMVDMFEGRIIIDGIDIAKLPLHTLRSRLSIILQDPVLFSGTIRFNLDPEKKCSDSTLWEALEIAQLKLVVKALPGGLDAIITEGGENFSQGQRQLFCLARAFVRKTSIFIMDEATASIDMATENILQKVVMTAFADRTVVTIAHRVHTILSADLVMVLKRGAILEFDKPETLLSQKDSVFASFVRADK

COc1ccc(CN2CCN(CCO)CC2)c(OC)c1OC [CV-8814, 2-(4-(2,3,4-trimethoxybenzyl)piperazin-1-yl)ethan-1-ol]
Inhibition [1]: < 50%
EF (in words) ([2]; 3-weeks after TAC): significantly increased
IVRT ([2]; 3-weeks after TAC): 33 ± 1 ms
IVSd ([2]; 3-weeks after TAC): 1.27±0.02 mm
LV mass ([2]; 3-weeks after TAC): 152 ± 9 mg
left ventricular FS ([2]; 3-weeks after TAC, CV-8814 7.5, CV-8972 10 mg/kg/day): 46%±2%
IVRT ([2]; 6-weeks after TAC): 28 ± 2 ms
IVSd ([2]; 6-weeks after TAC): 1.26±0.04 mm
left ventricular FS ([2]; 6-weeks after TAC (end of the experiment)): 44%±3%
cardiac functions in TAC mice (in words) ([2]; conclusion, 6 weeks treatment): improved cardiac functions
EF (in words) ([2]; to the end of the study (6 weeks)): protective effect was sustained to the end of the study
Inhibition [3]: < 50%
+dp/dtm [4]: 4572±268 mm Hg/sec
left ventricular developed pressure (LVDP) [4]: 123±8 mm Hg
Inhibition [5]: < 50%
Inhibition [6]: < 50%
cardiac remodeling in TAC mice (in words) [7, 29]: effectively inhibited cardiac remodeling
cardiac mass ([7]; TAC mice): 227 ± 12 mg
heart weight to body weight ratio ([7]; TAC mice, TMZ 6, NA 2.4, CV-8814 7.5, CV-8972 10 mg/kg/day, subcutaneous osmotic minipump): 7.6 ± 0.4 mg/g
Inhibition [8]: < 50%
Inhibition [9]: < 50%
Inhibition [10]: < 50%
Inhibition [11]: < 50%
Inhibition [12]: < 50%
Inhibition [13]: < 50%
Inhibition [14]: < 50%
inhibition at 10 µM [15]: < 50%
Inhibition [16]: < 50%
Inhibition [17]: < 50%
Inhibition [18]: < 50%
Inhibition [19]: < 50%
Inhibition [20]: < 50%
Inhibition [21]: < 50%
Inhibition [22]: < 50%
Inhibition [23]: < 50%
Inhibition [24]: < 50%

O=C(O)c1cccnc1 [NA, nicotinic acid, reference compound]
IVRT ([2]; 6-weeks after TAC): 29 ± 2 ms
IVSd (in words) ([2]; TAC mice, NA 2.4 mg/kg/day): decreased IVSd
LV mass (in words) ([2]; TAC mice, NA 2.4 mg/kg/day): no effect on LV mass
left ventricular developed pressure (LVDP) [4]: 141±20 mm Hg
cardiac remodeling in TAC mice (in words) [7, 29]: no significant effect on cardiac remodeling
cardiac fibrosis (fibrotic area to whole heart tissue area) [25]: 8.2±1%

COc1ccc(CN2CCNCC2)c(OC)c1OC [TMZ, trimetazidine]
LV mass ([2]; 3-weeks after TAC): 153 ± 8 mg
IVRT ([2]; 6-weeks after TAC): 36 ± 1 ms
LV mass ([2]; 6-weeks after TAC): 176 ± 15 mg
+dp/dtm [4]: 5157±615 mm Hg/sec
left ventricular developed pressure (LVDP) [4]: 137±10 mm Hg
cardiac remodeling in TAC mice (in words) [7, 29]: effectively inhibited cardiac remodeling
cardiac mass ([7]; TAC mice): 224 ± 12 mg
cardiac fibrosis (fibrotic area to whole heart tissue area) [25]: 7.6±1%
left ventricular developed pressure (LVDP), Mean ([26]; T20 (20 minutes)): 55.86
left ventricular developed pressure (LVDP), Mean ([26]; T170 (170 minutes, after IR)): 48.91
cardiac function after IR (in words) [26, 30]: prevented a decline in cardiac function
HR ([26]; after 2h reperfusion): 1.18E+02 and 1.19E+02 and 1.01E+02 and 1.51E+02 and 6.70E+01 and 9.22E+01 and 2.22E+02 and 1.70E+02 and 1.16E+02 and 2.38E+02
LVDP ([26]; after 2h reperfusion): 2.14E+01 and 4.34E+01 and 5.22E+01 and 2.97E+01 and 4.84E+01 and 4.67E+01 and 4.10E+01 and 7.65E+01 and 5.53E+01 and 7.43E+01
LVDPxHR ([26]; after 2h reperfusion): 2.52E+03 and 5.15E+03 and 5.28E+03 and 4.49E+03 and 3.24E+03 and 4.31E+03 and 9.11E+03 and 1.30E+04 and 6.44E+03 and 1.77E+04
LVEDP ([26]; after 2h reperfusion): 2.93E+01 and 3.31E+01 and 3.96E+01 and 1.80E+01 and 3.36E+00 and 1.87E+00 and 1.99E+01 and 3.21E+01 and 1.84E+01 and 1.77E+00
LVESP ([26]; after 2h reperfusion): 5.07E+01 and 7.66E+01 and 9.19E+01 and 4.77E+01 and 5.18E+01 and 4.86E+01 and 6.09E+01 and 1.09E+02 and 7.38E+01 and 7.61E+01
HR ([26]; after 2h reperfusion, mean): 1.39E+02
LVDP ([26]; after 2h reperfusion, mean): 4.89E+01
LVDPxHR ([26]; after 2h reperfusion, mean): 6.82E+03
LVEDP ([26]; after 2h reperfusion, mean): 1.97E+01
LVESP ([26]; after 2h reperfusion, mean): 6.86E+01
LVESP ([26]; pre-ischemia, TMZ 20 μM, TNF 2 μM each, TNS 20 μM each): 7.58E+01 and 8.44E+01 and 7.15E+01 and 5.47E+01 and 6.87E+01 and 4.27E+01 and 3.30E+01 (2×) and 6.60E+01 and 7.38E+01
LVESP ([26]; pre-ischemia, TMZ 20 μM, TNF 2 μM each, TNS 20 μM each, mean): 6.03E+01
HR ([26]; pre-ischemia): 2.63E+02 and 2.93E+02 and 1.66E+02 and 3.35E+02 and 3.58E+02 and 3.33E+02 and 3.48E+02 and 3.21E+02 and 2.67E+02 and 3.32E+02
LVDP ([26]; pre-ischemia): 6.93E+01 and 7.90E+01 and 6.48E+01 and 5.30E+01 and 6.51E+01 and 3.80E+01 and 2.82E+01 and 3.15E+01 and 5.87E+01 and 7.11E+01
LVDPxHR ([26]; pre-ischemia): 1.83E+04 and 2.31E+04 and 1.08E+04 and 1.77E+04 and 2.33E+04 and 1.26E+04 and 9.82E+03 and 1.01E+04 and 1.57E+04 and 2.36E+04
LVEDP ([26]; pre-ischemia): 6.53E+00 and 5.43E+00 and 6.76E+00 and 1.74E+00 and 3.58E+00 and 4.71E+00 and 4.77E+00 and 1.46E+00 and 7.25E+00 and 2.70E+00
HR ([26]; pre-ischemia, mean): 3.02E+02
LVDP ([26]; pre-ischemia, mean): 5.59E+01
LVDPxHR ([26]; pre-ischemia, mean): 1.68E+04
LVEDP ([26]; pre-ischemia, mean): 4.49E+00
infarct size after IR (in words) [27, 30]: decreased infarct size
IS/LV ([27]; individual isolated hearts after ischemia-reperfusion): 58% and 49% (2×) and 44% and 71% and 64% and 68% and 60% and 43% and 51%
IS/LV Mean ([27]; mean of 10 hearts of the group): 56%
CF20 [28]: 2.13 mL/min and 1.7 mL/min and 2.18 mL/min and 3.83 mL/min and 1.72 mL/min and 2.4 mL/min and 2.14 mL/min and 2.03 mL/min
CF20 ([28]; mean): 2.27 mL/min
CF170 [28]: 0.0516 mL/min and 0.1 mL/min and 0.0778 mL/min and 0.129 mL/min and 0.0898 mL/min and 0.0656 mL/min and 0.0556 mL/min and 0.13 mL/min
CF170 ([28]; mean): 0.0874 mL/min
CF170/CF20 [28]: 2.42E+01 μl/ml and 5.87E+01 μl/ml and 3.57E+01 μl/ml and 3.37E+01 μl/ml and 5.21E+01 μl/ml and 2.73E+01 μl/ml and 2.60E+01 μl/ml and 6.39E+01 μl/ml
CF170/CF20 ([28]; mean): 4.02E+01 μl/ml

Reference: US20220249463A1, “METHODS OF ALTERING CARDIAC REMODELING USING COMPOUNDS THAT PROMOTE GLUCOSE OXIDATION” (IMBRIA PHARMACEUTICALS, INC., priority 2019, published 2022)
